Experimental data reported in patent US20260014264A1, “SPECIFIC TOPOISOMERASE INHIBITOR, USE AS ANTIBODY DRUG CONJUGATE, AND PREPARATION METHOD THEREFOR” (BIOBRICS LIFE SCIENCE (NANTONG) CO., LTD., priority 2022, published 2026).
Like-named read-outs stand apart in the source and are kept apart here.

System: human non-small cell lung cancer cell line A549
Assay: In vitro cytotoxicity test of released camptothecin analogs (Luminescent Cell Viability Assay)
Format: cell-based
Description: Stable transfection of high expression Her2, high expression SK-BR-3 and BT-474 human breast cancer cells, NCI-N87 human gastric cancer cells and human non-small cell lung cancer cell line A549 were selected as the cell lines for in vitro activity detection in this experiment, and the killing dose and effect of different antibody coupled drugs on cells were observed. Preliminary selection of plate density for each cell type: 2×10^3 cells/well, followed by cytotoxicity assay after 16-24 h; Next, the antibody coupled drug prepared in Example 2 was tested with a final concentration set at 5000 nM as the starting concentration, and a series of 10 concentrations (4-10 fold dilution) were designed for 5000-0.006 nM. […] The IC50 was calculated after reading the fluorescence data.
The linkers in the present invention are all cleavable linkers. Therefore, the released camptothecin analogs were first subjected to in vitro cytotoxic activity testing, and the results are shown in the table below.

[1] = A549, 120 h, read-out: IC50 (A549, nM)
[2] = A549 cells, 120 hours, chemiluminescence cell viability, read-out: IC50 (A549)

CC[C@@]1(O)C(=O)OCc2c1cc1n(c2=O)Cc2c-1nc1cc(F)c(NC(=O)CO)c3c1c2CCC3 [Compound A1-FD]
IC50 [1]: 69.1 nM

CC[C@@]1(O)C(=O)OCc2c1cc1n(c2=O)Cc2c-1nc1cc(F)c(NC(=O)C(C)O)c3c1c2CCC3 (stereo partly shown) [Compound A2-FD]
IC50 [2]: 0.53 nM

CC[C@@]1(O)C(=O)OCc2c1cc1n(c2=O)Cc2c-1nc1cc(F)c(NC(=O)C(O)C3CC3)c3c1c2CCC3 (stereo partly shown) [Compound A3-FD]
IC50 [2]: 5.5 nM

CC[C@@]1(O)C(=O)OCc2c1cc1n(c2=O)Cc2c-1nc1cc(F)c(NC(=O)C3CC3O)c3c1c2CCC3 (stereo partly shown) [Compound A9-FD]
IC50 [2]: 25.2 nM

CC[C@@]1(O)C(=O)OCc2c1cc1n(c2=O)Cc2c-1nc1cc(F)c(NC(=O)C3CC(O)C3)c3c1c2CCC3 (stereo partly shown) [Compound A11-FD]
IC50 [2]: 2.1 nM

CC[C@@]1(O)C(=O)OCc2c1cc1n(c2=O)Cc2c-1nc1ccc(NC(=O)CO)c3c1c2CCC3 [Compound A16-FD]
IC50 [2]: 79.5 nM

CC[C@@]1(O)C(=O)OCc2c1cc1n(c2=O)Cc2c-1nc1cc(F)c(C)c3c1c2[C@@H](NC(=O)CO)CC3 [Dxd, reference compound]
IC50 [1]: 45.1 nM
